Test results reported in patent US7754887B2, “Process for production of sulfoxide derivatives or salts thereof in the amorphous state” (EISAI R&D Management Co., Ltd., priority 2003, dated 2010).

Columns and labels:
[1] = scan speed 2° C./min, 20 to 120° C.; FIG. 6
[2] = Measurement of particle size distribution by laser diffractometry (Microtrac X100); assay type: physicochemical; details: Sodium Salt; for particle size distribution: Microtrac X100, FIG. 4 and FIG. 5; for 90% cumulative diameter: calculated by measurement of the particle size distribution
Experimental: The measurement of particle size distribution by laser diffractometry can be conducted, for example, by using “Microtrac X100” (made by Leeds And Northrup). In the case where the particle size distribution of the amorphous substance of sulfoxide derivative (I) or the salt thereof, which is prepared by conducting the above-mentioned heat-drying, is measured by the laser diffractometry, the amorphous substance of sulfoxide derivative (I) or the salt thereof has 50 μm or less, preferably 30 μm or less of average particle diameter, and 80 μm or less, preferably 50 μm or less of 90% cumulative diameter.

[3] = Measurement of specific surface (nitrogen-absorption isotherm, BET method); assay type: physicochemical; details: Sodium Salt; for Specific surface: BET method, nitrogen absorption at 77 K after vacuum degassing at 50° C.; for Specific surface, relative comparison: relative to the freeze-dried product
Experimental: Measurement of Specific Surface:
As for each of amorphous substances of 2-[[4-(3-methoxypropoxy)-3-methylpyridine-2-yl]methylsulfinyl]-1H-benzimidazole sodium salt obtained by freeze-drying (Reference example 2), heat-drying (Example 3), respectively, the nitrogen-absorption isotherms were measured at liquid nitrogen temperature (77 K) by a high accuracy full automatic gas absorption equipment “BELSORP 36” (prepared by Japan Bell) after vacuum degassing at 50° C. These isotherms were analyzed by BET method to obtain the specific surface.

SMILES | temperature at which the acetone starts to be effectively decreased [1] [°C] | temperature at which the weight starts to be decreased [1] [°C] | particle size distribution [2] | 90% cumulative diameter [2] [μm] | Specific surface [3] [m^2/g] | Specific surface, relative comparison [3]
CC(C)=O.COCCCOc1ccnc(C[S+]([O-])c2nc3ccccc3[n-]2)c1C.[Na+] (stereo not shown) [Acetone Complex of 2-[[4-(3-methoxypropoxy)-3-methylpyridine-2-yl]methylsulfinyl]-1H-benzimidazole Sodium Salt] | ≥ 76.7 | ≥ 65.7 | – | – | – | –
COCCCOc1ccnc(C[S+]([O-])c2nc3ccccc3[nH]2)c1C.[Na] (stereo not shown) [The heat-dried product, 2-[[4-(3-methoxypropoxy)-3-methylpyridine-2-yl]methylsulfinyl]-1H-benzimidazole Sodium Salt] | – | – | sharp | 18.0 | 1.6 | 0.70
COCCCOc1ccnc(C[S+]([O-])c2nc3ccccc3[nH]2)c1C.[Na] (stereo not shown) [The freeze-dried product, 2-[[4-(3-methoxypropoxy)-3-methylpyridine-2-yl]methylsulfinyl]-1H-benzimidazole Sodium Salt] | – | – | broad | 192.3 | 2.3 | 1.00
